Assays:
CARM1 = biological target: T1, CARM1 (Homo sapiens, UniProt Q86X55); test: AlphaLISA CARM1 enzyme inhibition assay; format: biochemical; details: biotinylated H3 peptide 50 nM, SAM 300 nM, enzyme 0.1 nM, in duplicate
T1 sequence (Q86X55 1-608): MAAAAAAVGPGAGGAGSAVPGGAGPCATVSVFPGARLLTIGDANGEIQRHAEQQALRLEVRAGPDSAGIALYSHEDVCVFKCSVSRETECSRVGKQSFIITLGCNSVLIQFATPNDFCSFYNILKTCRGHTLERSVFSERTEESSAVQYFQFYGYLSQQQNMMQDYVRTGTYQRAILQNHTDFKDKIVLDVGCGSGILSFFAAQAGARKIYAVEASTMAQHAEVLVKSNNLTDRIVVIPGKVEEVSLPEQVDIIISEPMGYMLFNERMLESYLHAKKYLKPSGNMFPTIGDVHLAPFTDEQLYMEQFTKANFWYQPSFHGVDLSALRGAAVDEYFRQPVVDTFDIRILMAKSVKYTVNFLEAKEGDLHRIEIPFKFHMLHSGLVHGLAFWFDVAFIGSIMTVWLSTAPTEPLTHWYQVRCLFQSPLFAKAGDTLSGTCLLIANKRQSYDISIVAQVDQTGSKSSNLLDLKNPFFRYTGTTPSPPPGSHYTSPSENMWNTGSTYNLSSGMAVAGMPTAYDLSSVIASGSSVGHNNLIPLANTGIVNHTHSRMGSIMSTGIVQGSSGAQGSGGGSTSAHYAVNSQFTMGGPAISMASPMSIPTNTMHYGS
Experimental: The enzymatic inhibitory activities of compounds were measured by the AlphaLISA assay provided by Shanghai ChemPartner Co., Ltd. The compounds selected from virtual screening were transferred to the assay plate (white opaque OptiPlate-384, PerkinElmer). 5 μL of enzyme solution (final concentration was 0.1 nM) or pH 8.0 tris-based assay buffer (for Min well) was added to the assay plate and then centrifuged at 1000 rpm for 1 min. Afterwards, the assay plate was incubated for 15 min at room temperature (RT). Then 5 μL of biotinylated H3 peptide/SAM mix (final concentrations were 50 nM and 300 nM, resp.) was added to the assay plate, which was covered with TopSeal-Afilm and incubated for 1 h at RT after centrifuging at 1000 rpm for 1 min (DMSO final concentration 1%). Next, 5 μL of acceptor beads (final concentration was 10 μg/mL) was added to stop the enzymatic reaction. […] Finally, the mixtures were incubated for 30 min at RT, and the signal was read in alpha mode using EnVision readers. The IC50 values were calculated by fit inhibition rates under different concentrations into GraphPad Prism 5.0 software. […] The end point was read in alpha mode using EnVision readers, and IC50 values were calculated in GraphPad Prism 5.0 software.

PRMT1 = PRMT1 (Homo sapiens, UniProt Q99873); test: In vitro enzyme selectivity assay, PRMT1; format: biochemical; details: in duplicate
Experimental: (§1) The enzymatic inhibitory activities of compounds were measured by the AlphaLISA assay provided by Shanghai ChemPartner Co., Ltd. The compounds selected from virtual screening were transferred to the assay plate (white opaque OptiPlate-384, PerkinElmer). 5 μL of enzyme solution (final concentration was 0.1 nM) or pH 8.0 tris-based assay buffer (for Min well) was added to the assay plate and then centrifuged at 1000 rpm for 1 min. Afterwards, the assay plate was incubated for 15 min at room temperature (RT). Then 5 μL of biotinylated H3 peptide/SAM mix (final concentrations were 50 nM and 300 nM, resp.) was added to the assay plate, which was covered with TopSeal-Afilm and incubated for 1 h at RT after centrifuging at 1000 rpm for 1 min (DMSO final concentration 1%). Next, 5 μL of acceptor beads (final concentration was 10 μg/mL) was added to stop the enzymatic reaction. After incubating at room temperature for 60 min, 10 μL of donor beads was added (final concentration was 10 μg/mL) in subdued light and then centrifuged at 1000 rpm for 1 min. Finally, the mixtures were incubated for 30 min at RT, and the signal was read in alpha mode using EnVision readers. The IC50 values were calculated by fit inhibition rates under different concentrations into GraphPad Prism 5.0 software. […]

PRMT6 = PRMT6 (Homo sapiens, UniProt Q96LA8); test: In vitro enzyme selectivity assay, PRMT6; format: biochemical; details: in duplicate
Experimental: as §1

HELA (cervical cancer) = test: Cell viability (MTT) assay, HELA; format: cell-based, human; details: 24 hrs, 48 hrs, 72 hrs, Figure 2
Experimental: (§2) The three cell lines, HELA, K562, and MCF7, were purchased from the American Type Culture Collection (ATCC). HELA, K562, and MCF7 were cultured in DMEM (Life Technologies) supplemented with 10% FBS. All of the cell lines were seeded into 96-well plates at an appropriate density and then treated with compounds of different concentrations or DMSO control. After 24 hrs, 48 hrs, and 72 hrs, cell viabilities were measured by the MTT assay. It has been reported that CARM1 was a potential target in many cancers; thus it is well accepted that inhibiting CARM1 could affect cancer cell proliferation. In this study, three human tumor cell lines including HELA (cervical cancer), K562 (myeloid leukemia), and MCF7 (breast cancer) were chosen to evaluate the cellular activity of the two compounds DC_C11 and DC_[…]. Sinefungin, a pan-PRMTs inhibitor which has the same scaffold as the cofactor SAM does, was evaluated for control experiment. […] In the three cell lines, DC_[…] presents better antiproliferative cellular activity, which is consistent with their inhibitory activity in vitro. Combined with the biological data in vitro, we confirmed that compounds DC_C11 and DC_[…] are cell membrane permeable, which presented promising activity both in vitro and in cellular environment.  Figure 2 Antiproliferative effect of DC_C11 and DC_[…] on several cancer cell lines. (a-c) Time-dependent and dose-dependent inhibitory effect of DC_C11 on HELA, K562, and MCF7 within 24 hrs, 48 hrs, and 72 hrs, respectively. (d-f) Time-dependent and dose-dependent inhibitory effect of DC_[…] on HELA, K562, and MCF7 within 24 hrs, 48 hrs, and 72 hrs, respectively. (g-i) Time-dependent and dose-dependent inhibitory effect of Sinefungin on HELA, K562, and MCF7 within 24 hrs, 48 hrs, and 72 hrs, respectively.

K562 (myeloid leukemia) = test: Cell viability (MTT) assay, K562; format: cell-based, human; details: 24 hrs, 48 hrs, 72 hrs, Figure 2
Experimental: as §2

MCF7 (breast cancer) = test: Cell viability (MTT) assay, MCF7; format: cell-based, human; details: 24 hrs, 48 hrs, 72 hrs, Figure 2
Experimental: as §2

PRMT5 = PRMT5 (Homo sapiens, UniProt O14744); test: In vitro enzyme selectivity assay, PRMT5; format: biochemical; details: at a concentration of 50 μM; read-out: inhibition rate of PRMT5
Experimental: as §1

Sequence of PRMT6 (Q96LA8 whole entry, species assumed): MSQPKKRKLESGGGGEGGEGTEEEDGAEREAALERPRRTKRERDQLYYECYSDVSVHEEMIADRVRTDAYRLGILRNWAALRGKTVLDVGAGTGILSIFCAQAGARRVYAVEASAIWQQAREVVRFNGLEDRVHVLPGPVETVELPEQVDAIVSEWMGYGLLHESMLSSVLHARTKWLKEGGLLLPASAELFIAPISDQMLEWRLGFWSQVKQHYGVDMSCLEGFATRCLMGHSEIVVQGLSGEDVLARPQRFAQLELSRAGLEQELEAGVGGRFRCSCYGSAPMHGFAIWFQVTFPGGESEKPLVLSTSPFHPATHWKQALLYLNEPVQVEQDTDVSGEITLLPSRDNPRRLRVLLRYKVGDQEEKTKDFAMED
Sequence of PRMT1 (Q99873 whole entry, species assumed): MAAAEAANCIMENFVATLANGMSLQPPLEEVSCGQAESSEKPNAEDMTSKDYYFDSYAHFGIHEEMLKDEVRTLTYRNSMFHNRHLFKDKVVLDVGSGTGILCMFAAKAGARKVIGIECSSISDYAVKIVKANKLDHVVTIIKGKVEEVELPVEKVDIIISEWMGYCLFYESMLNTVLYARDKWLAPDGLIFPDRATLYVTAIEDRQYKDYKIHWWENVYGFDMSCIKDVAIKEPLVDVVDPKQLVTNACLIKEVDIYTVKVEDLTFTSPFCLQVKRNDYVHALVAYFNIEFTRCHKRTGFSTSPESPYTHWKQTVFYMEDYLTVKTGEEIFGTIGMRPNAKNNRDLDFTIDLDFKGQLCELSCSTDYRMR
Sequence of PRMT5 (O14744 whole entry, species assumed): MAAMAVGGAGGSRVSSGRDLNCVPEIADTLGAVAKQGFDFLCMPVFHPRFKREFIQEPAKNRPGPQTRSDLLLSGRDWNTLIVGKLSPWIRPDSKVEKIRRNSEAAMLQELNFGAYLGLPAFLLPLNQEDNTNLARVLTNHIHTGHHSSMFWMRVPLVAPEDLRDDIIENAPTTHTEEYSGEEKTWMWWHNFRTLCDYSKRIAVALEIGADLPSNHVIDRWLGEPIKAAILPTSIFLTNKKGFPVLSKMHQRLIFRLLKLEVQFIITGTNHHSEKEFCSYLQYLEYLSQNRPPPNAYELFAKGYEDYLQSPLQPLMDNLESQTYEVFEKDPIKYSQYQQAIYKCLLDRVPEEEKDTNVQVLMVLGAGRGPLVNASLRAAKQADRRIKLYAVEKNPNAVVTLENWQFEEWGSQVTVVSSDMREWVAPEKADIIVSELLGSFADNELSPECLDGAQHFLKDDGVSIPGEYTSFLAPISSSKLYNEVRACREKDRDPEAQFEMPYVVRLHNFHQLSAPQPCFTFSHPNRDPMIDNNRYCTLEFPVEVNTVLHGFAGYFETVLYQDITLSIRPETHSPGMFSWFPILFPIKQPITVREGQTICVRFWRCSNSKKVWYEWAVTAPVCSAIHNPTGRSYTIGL
Sequence of PRMT5 (Q9BQA1 whole entry partner, species assumed): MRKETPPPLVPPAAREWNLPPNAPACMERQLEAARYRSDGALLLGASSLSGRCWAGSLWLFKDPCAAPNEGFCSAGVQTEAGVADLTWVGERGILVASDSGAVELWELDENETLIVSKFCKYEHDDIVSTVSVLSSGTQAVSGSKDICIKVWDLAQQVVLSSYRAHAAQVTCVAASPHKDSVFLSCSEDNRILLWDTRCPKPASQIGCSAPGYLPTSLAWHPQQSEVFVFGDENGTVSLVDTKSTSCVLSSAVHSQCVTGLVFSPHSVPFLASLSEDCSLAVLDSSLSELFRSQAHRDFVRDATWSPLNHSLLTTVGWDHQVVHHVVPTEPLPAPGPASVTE

| Compound | IC50 (CARM1) [µM] | IC50 (PRMT1) [µM] | IC50 (PRMT6) [µM] | Antiproliferative effect on HELA (HELA (cervical cancer)) | Antiproliferative effect on K562 (K562 (myeloid leukemia)) | Antiproliferative effect on MCF7 (MCF7 (breast cancer)) | inhibition at 50 µM (PRMT5) [%] |
| --- | --- | --- | --- | --- | --- | --- | --- |
| O=C(c1ccccc1)c1c2c(cc3sc4ccccc4[n+]13)-c1cccc3cccc-2c13 [DC_C11] | 15 | 36 | 41 | inhibit proliferation of cancer cells in a time-dependent and dose-dependent manner | inhibit proliferation of cancer cells in a time-dependent and dose-dependent manner | inhibit proliferation of cancer cells in a time-dependent and dose-dependent manner |  |
| CCOC(=O)c1c2c3ccccc3c3ccccc3c2cc2[n+]1CCc1ccccc1-2 [DC_C66] | 1.8 | 21 | 47 | inhibit proliferation of cancer cells in a time-dependent and dose-dependent manner | inhibit proliferation of cancer cells in a time-dependent and dose-dependent manner | inhibit proliferation of cancer cells in a time-dependent and dose-dependent manner | < 50 |
| Nc1ncnc2c1ncn2[C@@H]1O[C@H](C[C@@H](N)CC[C@H](N)C(=O)O)[C@@H](O)[C@H]1O [Sinefungin, reference compound] |  |  |  | weaker inhibitory activity | weaker inhibitory activity | weaker inhibitory activity |  |

Reference: article PMC5107250, “Identification of Novel Inhibitors against Coactivator Associated Arginine Methyltransferase 1 Based on Virtual Screening and Biological Assays” (BioMed Research International, 2016)
